Literature values in patent publication US8449906B2, “Effervescent compositions comprising phosphonates and methods related thereto” (EffRx Pharmaceuticals, S.A., priority 2002, dated 2013).

pKa: about 3.9
Structure (SMILES): COc1ccc2[nH]c([S+]([O-])Cc3ncc(C)c(OC)c3C)nc2c1 (stereo not shown) [omeprazole]
